Results reported in US12501868B2, “Haploid induction compounds and methods for use thereof” (WIMI BIOTECHNOLOGY (HAINAN) CO., LTD., priority 2020, dated 2025).
“And” between values parts separate entries of the source, which are not always exact repeats. Equal entries are not always repeated. Where two headings read alike, the source gives them in different places.

Key:
maize pollen = experiment: Relative ROS level in maize pollen (ROS detection kit, fluorometry); assay type: cell-based
Procedure: The red channel or bright channel of the photo was analyzed, and the ROS level was represented by the light intensity of the wavelength with the largest proportion. The relative ROS level in a reproductive tissue refers to a ratio of the ROS level of the reproductive tissue to the ROS level in the control group (40% sucrose).
Taking maize pollen as an example, the experiment of a series of compounds that may affect the ROS level in the maize pollen was tested.
All reagents are dissolved in 40% sucrose. The relative ROS levels were from 6-7 measurements.

[1] = system: sperm cells of maize pollen; experiment: DNA fragmentation in sperm cells of treated maize pollen (single sperm amplified sequencing); settings: treated pollen vs 40% sucrose control
Source text: DNA fragmentation (which is one of the characteristics of haploid) in the treated pollen is detected.
Release sperm cells on the slide and separate a single sperm for amplified sequencing (Sigma WGA4 kit).

[2] = bright channel, ratio to 40% sucrose control, final concentration as listed per compound in Table 5, 6-7 measurements
[3] = red channel, ratio to 40% sucrose control, final concentration as listed per compound in Table 5, 6-7 measurements

Compound | Relative ROS Level Bright (maize pollen; [2]) | Relative ROS Level Red (maize pollen; [3]) | other results
1,2-Octadecyl Phosphatidylinositol Di-4,5-Phosphate [Compound 5] | 1.06 ± 0.06 | 1.05 ± 0.07 | –
[Ca+2].[Cl-].[Cl-] [Compound 1, calcium chloride] | – | – | Relative ROS Level Bright (maize pollen): 4.03 ± 0.24 and 3.11 ± 0.23; Relative ROS Level Red (maize pollen): 3.81 ± 0.21 and 3.01 ± 0.23; effect on relative ROS level (in words) (maize pollen): most obvious effect on the increase of ROS level
O=[N+]([O-])[O-].O=[N+]([O-])[O-].[Ca+2] [Compound 2, calcium nitrate] | – | – | Relative ROS Level Bright (maize pollen; bright channel, final concentration 1.83 mM, ratio to 40% sucrose control): 2.57 ± 0.15; Relative ROS Level Bright (maize pollen; bright channel, final concentration 18.3 mM, ratio to 40% sucrose control): 3.08 ± 0.12; Relative ROS Level Red (maize pollen; red channel, final concentration 1.83 mM, ratio to 40% sucrose control): 2.55 ± 0.21; Relative ROS Level Red (maize pollen; red channel, final concentration 18.3 mM, ratio to 40% sucrose control): 2.97 ± 0.12
Nc1ncnc2c1ncn2[C@@H]1O[C@@H]2COP(=O)(O)O[C@H]2[C@H]1O [Compound 3, cyclic Adenosine Monophosphate] | 2.04 ± 0.15 | 1.97 ± 0.10 | –
C/C1=C\[C@H](C)C[C@H](C)OC(=O)C[C@H](c2ccc(O)cc2)NC(=O)[C@@H](Cc2c(Br)[nH]c3ccccc23)N(C)C(=O)[C@H](C)NC(=O)[C@@H](C)C1 [Compound 6, Jasplakinolide] | 1.79 ± 0.16 | 1.77 ± 0.16 | –
CC(=O)OC(C)(C)/C=C/C(=O)[C@](C)(O)[C@H]1[C@H](O)C[C@@]2(C)[C@@H]3CC=C4[C@@H](C=C(O)C(=O)C4(C)C)[C@]3(C)C(=O)C[C@]12C [Compound 7, Cucurbitacin E] | 1.37 ± 0.02 | 1.31 ± 0.08 | –
C/C1=C/C(=O)O[C@@H]2C[C@@H](CC[C@H](C)/C=C\CC1)O[C@@](O)([C@@H]1CSC(=O)N1)C2 [Compound 8, Latrunculin B] | 1.64 ± 0.10 | 1.66 ± 0.06 | –
C/C1=C/C(=O)O[C@@H]2C[C@@H](CC[C@H](C)/C=C\C=C\CC1)O[C@@](O)([C@@H]1CSC(=O)N1)C2 [Compound 9, Latrunculin A] | 1.37 ± 0.00 | 1.35 ± 0.05 | –
Cc1ccc2c(c1)C(=O)C1(O)CCN(c3ccccc3)C1=N2 (stereo not shown) [Compound 10, Blebbistatin] | 1.37 ± 0.14 | 1.35 ± 0.17 | –
c1ccc2c(c1)[I+]c1ccccc1-2 [Compound 11, Diphenyl iodide chloride] | 1.53 ± 0.14 | 1.55 ± 0.13 | –
Cn1cc[nH]c1=S [Compound 12, Methimazole] | – | – | Proportion of fragmentation compared with control group [1]: higher proportion of fragmentation
O=C(NCCN1CCC(n2c(=O)[nH]c3ccccc32)CC1)c1cc2cc(F)ccc2[nH]1 [Compound 13] | 1.35 ± 0.06 | 1.34 ± 0.07 | –
S=C([S-])OC1CC2CC1C1CCCC21.[K+] (stereo not shown) [Compound 16] | 1.12 ± 0.10 | 1.14 ± 0.10 | –
O=P(O)(O)O[C@@H]1[C@H](O)[C@H](O)[C@@H](OP(=O)(O)O)[C@H](OP(=O)(O)O)[C@H]1O [Compound 20, IP3(1,4,5)] | 0.60 ± 0.02 | 0.67 ± 0.03 | –
O=C(O)CC(O)(CC(=O)O)C(=O)O [Compound 21, Citric acid] | 0.74 ± 0.06 | 0.78 ± 0.02 | –
OO [Hydrogen Peroxide, Hydrogen peroxide] | – | – | Proportion of fragmentation compared with control group [1]: higher proportion of fragmentation
Lecithin PC_18:1 [Compound 15] | 1.21 ± 0.18 | 1.19 ± 0.17 | –
PA_18:1 [Compound 25] | 0.33 ± 0.02 | 0.34 ± 0.01 | –
PE_18:1 [Compound 23] | 0.92 ± 0.08 | 0.98 ± 0.04 | –
PG_18:1 [Compound 26] | 0.32 ± 0.00 | 0.33 ± 0.00 | –
PI(3)P_18:1 [Compound 19] | 0.62 ± 0.06 | 0.63 ± 0.05 | –
PI(3,5)PP_18:1 [Compound 17] | 0.82 ± 0.11 | 0.88 ± 0.08 | –
PI(4)P_18:1 [Compound 18] | 0.82 ± 0.10 | 0.84 ± 0.08 | –
PI_18:1 [Compound 24] | 0.81 ± 0.05 | 0.88 ± 0.06 | –
PS_18:1 [Compound 22] | 0.65 ± 0.02 | 0.63 ± 0.05 | –
choline phosphate [Compound 14] | – | – | Relative ROS Level Bright (maize pollen): 1.27 ± 0.11; Relative ROS Level Red (maize pollen): 1.28 ± 0.08
inositol triphosphate [Compound 4] | 1.37 ± 0.00 | 1.39 ± 0.01 | –
